Source: US20250197394A1, “ANTIBACTERIALS BASED ON MONOCYCLIC FRAGMENTS COUPLED TO AMINOPIPERIDINE NAPHTHYRIDINE SCAFFOLD” (UNIVERZA V LJUBLJANI, priority 2019, published 2025)
≈ marks a conversion by molar mass, not a printed value.

How the values were obtained:
Assay type in all cases: cell-based
HepG2 (ATCC) cell line = experiment: Cytotoxicity, metabolic cell activity (CellTiter 96 AQueous One), HepG2; conditions: two independent experiments
Method: (§1) Cytotoxicity was assessed in assay measuring metabolic cell activity performed on HepG2 (ATCC) and HUVEC (ATCC) cell lines according to the protocol of CellTiter 96® AQueous One Solution Cell Proliferation Assay 2018, Promega, USA, 2001. The method involved absorbance measurements after the treatment of cells with compounds at concentrations 1 μM and 50 μM.
(§2) The results are given as the mean percentage of metabolic activity of treated cells from two independent experiments and are represented in Table 3.

P. aeruginosa RDK 184 = experiment: MIC broth microdilution, P. aeruginosa; conditions: Pseudomonas aeruginosa, RDK184, 20 hours of incubation
Method: (§3) Minimal inhibitory concentrations were determined by the broth microdilution method in 96-wells plate format following the Clinical and Laboratory Standards Institute (CLSI) guidelines given in “Methods for Dilution Antimicrobial Susceptibility Tests for Bacteria That Grow Aerobically, Approved Standard, 10th Edition, CLSI document M07-A10, Wayne, PA: Clinical and Laboratory Standards Institute, USA, 2015” and European Committee on Antimicrobial Susceptibility Testing (EUCAST) recommendations given in “The European Committee on Antimicrobial Susceptibility Testing, Breakpoint tables for interpretation of MICs and zone diameters, Version 5.0, 2015”. All exemplified compounds were tested on several Gram-positive (S. aureus, methicillin-resistant Staphylococcus aureus (MRSA), methicillin-resistant
(§4) Staphylococcus schleiferi subspecies coagulans, methicillin-resistant Staphylococcus pseudintermedius
(§5) (S-48, S-84, S-35, S-52, S-40 and S-51), Streptococcus agalactiae and Enterococcus faecalis) and Gram-negative bacteria (E. coli, Salmonella Alachua and Pseudomonas aeruginosa).
(§6) The MICs were visually determined as the lowest compound concentration inhibiting bacterial growth after 20 hours of incubation time. […] MIC values are represented in Table 2.

[1] = test system: methicillin-resistant Staphylococcus pseudintermedius S-40; experiment: MIC broth microdilution, MRSP S-40; conditions: 20 hours of incubation
Method: as §3, §4, §5, §6

[2] = test system: methicillin-resistant Staphylococcus pseudintermedius S-48; experiment: MIC broth microdilution, MRSP S-48; conditions: 20 hours of incubation
Method: as §3, §4, §5, §6

[3] = test system: methicillin-resistant Staphylococcus pseudintermedius S-84; experiment: MIC broth microdilution, MRSP S-84; conditions: 20 hours of incubation
Method: as §3, §4, §5, §6

E. faecalis DRK 057 = experiment: MIC broth microdilution, E. faecalis; conditions: Enterococcus faecalis, DRK057, 20 hours of incubation
Method: as §3, §4, §5, §6

C. jejuni RDK-135 = experiment: MIC broth microdilution, C. jejuni; conditions: Campylobacter jejuni, RDK135, 20 hours of incubation
Method: as §3, §6

[4] = test system: methicillin-resistant Staphylococcus pseudintermedius S-35; experiment: MIC broth microdilution, MRSP S-35; conditions: 20 hours of incubation
Method: as §3, §4, §5, §6

HUVEC (ATCC) cell line = experiment: Cytotoxicity, metabolic cell activity (CellTiter 96 AQueous One), HUVEC; conditions: two independent experiments
Method: as §1, §2

[5] = test system: methicillin-resistant Staphylococcus pseudintermedius S-52; experiment: MIC broth microdilution, MRSP S-52; conditions: 20 hours of incubation
Method: as §3, §4, §5, §6

[6] = test system: methicillin-resistant Staphylococcus pseudintermedius S-51; experiment: MIC broth microdilution, MRSP S-51; conditions: 20 hours of incubation
Method: as §3, §4, §5, §6

[7] = test system: methicillin-resistant Staphylococcus schleiferi subspecies coagulans; experiment: MIC broth microdilution, MRSS; conditions: 20 hours of incubation
Method: as §3, §4, §5, §6

S. aureus = experiment: MIC broth microdilution, S. aureus; conditions: Staphylococcus aureus, 20 hours of incubation
Method: as §3, §4, §5, §6

In the case of `COc1ccc2nccc(CCN3CCC(NCc4ccc(Cl)cc4)CC3)c2n1` [Compound C6, N-(4-chlorobenzyl)-1-(2-(6-methoxy-1,5-naphthyridin-4-yl)ethyl)piperidin-4-amine], the “mean percentage of metabolic activity of treated cells, HepG2 1 μM” value (HepG2 (ATCC) cell line; HepG2, compound 1 μM) is reported as 84.5 ± 11.1%, the “mean percentage of metabolic activity of treated cells, HepG2 50 μM” value (HepG2 (ATCC) cell line; HepG2, compound 50 μM) is reported as 0.9 ± 0.1% and the MIC (P. aeruginosa RDK 184) is reported as greater than 128 µg/mL. For the same compound, the MIC [1] was 0.25 µg/mL (≈ 0.608 µM), the MIC [2] was 0.25 µg/mL (≈ 0.608 µM) and the MIC [3] was 0.25 µg/mL (≈ 0.608 µM). For the same compound, the MIC (E. faecalis DRK 057) was 1 µg/mL (≈ 2.43 µM), the MIC (C. jejuni RDK-135) was 2 µg/mL (≈ 4.87 µM) and the MIC [4] was 0.25 µg/mL (≈ 0.608 µM). For the same compound, the “mean percentage of metabolic activity of treated cells, HUVEC 1 μM” value (HUVEC (ATCC) cell line; compound 1 μM) was 86.1 ± 17.1%, the “mean percentage of metabolic activity of treated cells, HUVEC 50 μM” value (HUVEC (ATCC) cell line; compound 50 μM) was −0.6 ± 0.4% and the MIC [5] was 0.5 µg/mL (≈ 1.22 µM). The MIC [6] was 0.25 µg/mL (≈ 0.608 µM), the MIC [7] was no more than 0.0078 µg/mL and the MIC (S. aureus) was 0.125 µg/mL (≈ 0.304 µM).
